# Bridge positions count the residues as written; N and C are the ends. Square brackets hold non-standard residues; d marks the D form. Peptide text beside a SMILES is read from it. Hyp = O=C(O)[C@@H]1C[C@@H](O)CN1
# Legend:
# [1] = Physical stability of peptide analogues (Thioflavin T fibrillation); format: physicochemical; conditions: maximum ThT signal normalized between hAMY maximum and buffer background; 40° C., shaking, four days; pH 7 per table title
# Method in brief: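 Peptides in 50 mM sodium acetate pH 4 or 50 mM sodium phosphate pH 7 were preincubated 1 h, mixed with 4 μM ThT, held at 40° C with 700 rpm shaking before each read. Fluorescence (ex 450/em 480 nm) every 10 min for four days; LOESS-smoothed maximum signal normalized in percent between hAMY and buffer.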
# hAMY3 receptor = target: T1, hAMY3 receptor (Homo sapiens, UniProt O60896+P30988); test: cAMP assay for in vitro receptor activation, hAMY3-R; format: cell-based; conditions: cAMP assay, hAMY3 receptor; read-out: hAMY3R EC50
# T1 sequence (P30988 25-474): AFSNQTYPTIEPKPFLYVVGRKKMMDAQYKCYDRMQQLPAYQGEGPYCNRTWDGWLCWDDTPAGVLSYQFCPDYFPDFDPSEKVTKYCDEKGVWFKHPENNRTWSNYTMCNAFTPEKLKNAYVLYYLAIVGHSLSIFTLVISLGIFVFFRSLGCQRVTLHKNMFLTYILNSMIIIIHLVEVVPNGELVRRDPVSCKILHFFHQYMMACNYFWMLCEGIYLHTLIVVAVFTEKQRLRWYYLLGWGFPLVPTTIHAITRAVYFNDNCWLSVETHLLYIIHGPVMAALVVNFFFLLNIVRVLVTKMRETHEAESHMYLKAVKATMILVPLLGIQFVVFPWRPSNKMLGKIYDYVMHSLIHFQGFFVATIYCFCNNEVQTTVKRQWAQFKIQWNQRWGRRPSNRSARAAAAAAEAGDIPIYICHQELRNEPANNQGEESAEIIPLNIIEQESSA
# T1 sequence (O60896 24-148 partner): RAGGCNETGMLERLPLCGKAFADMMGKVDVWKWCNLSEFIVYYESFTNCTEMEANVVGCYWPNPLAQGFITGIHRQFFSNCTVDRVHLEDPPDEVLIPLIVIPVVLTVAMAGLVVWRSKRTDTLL
# Method in brief: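 Accumulated cAMP was detected by time-resolved FRET one hour after reagent addition. Beforehand, hAMY3-R-overexpressing monoclonal cells (2000/well, DPBS, 0.05% casein, 0.5 mM IBMX) received graded doses of compound for 30 min at room temperature; human amylin served as positive control.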
SMILES,Max ThT signal (%) [1] [%],EC50 (hAMY3 receptor) [pM]
CC[C@H](C)[C@H](NC(=O)[C@H](CCC(N)=O)NC(=O)[C@H](Cc1c[nH]cn1)NC(=O)[C@H](C)NC(=O)[C@H](CC(C)C)NC(=O)[C@H](CCCNC(=N)N)NC(=O)[C@H](CCC(N)=O)NC(=O)[C@@H](NC(=O)[C@@H](NC(=O)[C@@H]1CSSC[C@H](NC(=O)CN)C(=O)N[C@@H](CCCNC(=N)N)C(=O)N[C@@H](Cc2ccccc2)C(=O)NCC(=O)N[C@@H]([C@@H](C)O)C(=O)N1)[C@@H](C)O)C(C)C)C(=O)N[C@@H](Cc1ccc(O)cc1)C(=O)N[C@@H](CCC(N)=O)C(=O)N[C@@H](Cc1ccccc1)C(=O)N[C@H](C(=O)N[C@@H](CC(=O)O)C(=O)N[C@@H](CCCCN)C(=O)N[C@@H](CC(=O)O)C(=O)N[C@@H](CCCCN)C(=O)N[C@@H](CC(=O)O)C(=O)N[C@@H](CC(N)=O)C(=O)N[C@H](C(=O)N[C@@H](C)C(=O)N1CCC[C@H]1C(=O)N[C@@H](CCCNC(=N)N)C(=O)N[C@H](C(=O)N[C@@H](CCCCN)C(=O)N[C@H](C(=O)N[C@@H](CO)C(=O)N1CCC[C@H]1C(=O)N[C@@H](CCC(N)=O)C(=O)NCC(=O)N[C@@H](Cc1ccc(O)cc1)C(N)=O)[C@@H](C)CC)[C@@H](C)O)C(C)C)[C@@H](C)O [compound 164] (H-GCRFGTCTVQRLAHQIYQFTDKDKDNVAPRTKISPQGY-NH2; disulfide 2-7),24.300,54
CC[C@H](C)[C@H](NC(=O)[C@H](CC(N)=O)NC(=O)[C@H](CO)NC(=O)[C@H](CCCNC(=N)N)NC(=O)[C@@H]1CCCN1C(=O)[C@H](C)NC(=O)[C@@H](NC(=O)[C@H](CC(N)=O)NC(=O)[C@H](CC(=O)O)NC(=O)[C@H](CCCCN)NC(=O)[C@H](CC(=O)O)NC(=O)[C@H](CCCCN)NC(=O)[C@H](CC(=O)O)NC(=O)[C@@H](NC(=O)[C@H](Cc1ccccc1)NC(=O)[C@H](CCC(N)=O)NC(=O)[C@H](Cc1ccc(O)cc1)NC(=O)[C@@H](NC(=O)[C@H](CCC(N)=O)NC(=O)[C@H](Cc1c[nH]cn1)NC(=O)[C@H](C)NC(=O)[C@H](CC(C)C)NC(=O)[C@H](CCCNC(=N)N)NC(=O)[C@H](CCC(N)=O)NC(=O)[C@@H](NC(=O)[C@@H](NC(=O)[C@@H]1CSSC[C@H](NC(=O)CN)C(=O)N[C@@H](CCCNC(=N)N)C(=O)N[C@@H]([C@@H](C)O)C(=O)NCC(=O)N[C@@H]([C@@H](C)O)C(=O)N1)[C@@H](C)O)C(C)C)[C@@H](C)CC)[C@@H](C)O)C(C)C)C(=O)NCC(=O)N1CCC[C@H]1C(=O)N[C@@H](CCC(N)=O)C(=O)NCC(=O)N1C[C@H](O)C[C@H]1C(N)=O [compound 165] (H-GCRTGTCTVQRLAHQIYQFTDKDKDNVAPRSNIGPQG[Hyp]-NH2; disulfide 2-7; N-terminus assumed),4.800,54
CC[C@H](C)[C@H](NC(=O)[C@H](CCC(N)=O)NC(=O)[C@H](Cc1c[nH]cn1)NC(=O)[C@H](C)NC(=O)[C@H](CC(C)C)NC(=O)[C@H](CCCNC(=N)N)NC(=O)[C@H](CCC(N)=O)NC(=O)[C@@H](NC(=O)[C@@H](NC(=O)[C@@H]1CSSC[C@H](NC(=O)CN)C(=O)N[C@@H](CCCNC(=N)N)C(=O)N[C@@H]([C@@H](C)O)C(=O)NCC(=O)N[C@@H]([C@@H](C)O)C(=O)N1)[C@@H](C)O)C(C)C)C(=O)N[C@@H](Cc1ccc(O)cc1)C(=O)N[C@@H](CCC(N)=O)C(=O)N[C@@H](Cc1ccccc1)C(=O)N[C@H](C(=O)N[C@@H](CC(=O)O)C(=O)N[C@@H](CCCCN)C(=O)N[C@@H](CC(=O)O)C(=O)N[C@@H](CCCCN)C(=O)N[C@@H](CC(=O)O)C(=O)N[C@@H](CC(N)=O)C(=O)N[C@H](C(=O)N[C@@H](C)C(=O)N1CCC[C@H]1C(=O)N[C@@H](CCCNC(=N)N)C(=O)N[C@@H](CO)C(=O)N[C@@H](CC(N)=O)C(=O)N[C@H](C(=O)N[C@@H](CO)C(=O)N1CCC[C@H]1C(=O)N[C@@H](CC(N)=O)C(=O)NCC(=O)N1C[C@H](O)C[C@H]1C(N)=O)C(C)C)C(C)C)[C@@H](C)O [compound 166] (H-GCRTGTCTVQRLAHQIYQFTDKDKDNVAPRSNVSPNG[Hyp]-NH2; disulfide 2-7; N-terminus assumed),2.000,56
CC[C@H](C)[C@H](NC(=O)[C@H](CCC(N)=O)NC(=O)[C@H](Cc1c[nH]cn1)NC(=O)[C@H](C)NC(=O)[C@H](CC(C)C)NC(=O)[C@H](CCCNC(=N)N)NC(=O)[C@H](CCC(N)=O)NC(=O)[C@@H](NC(=O)[C@@H](NC(=O)[C@@H]1CSSC[C@H](NC(=O)CN)C(=O)N[C@@H](CCCNC(=N)N)C(=O)N[C@@H](Cc2ccccc2)C(=O)NCC(=O)N[C@@H]([C@@H](C)O)C(=O)N1)[C@@H](C)O)C(C)C)C(=O)N[C@@H](Cc1ccc(O)cc1)C(=O)N[C@@H](CCC(N)=O)C(=O)N[C@@H](Cc1ccccc1)C(=O)N[C@H](C(=O)N[C@@H](CC(=O)O)C(=O)N[C@@H](CCCCN)C(=O)N[C@@H](CC(=O)O)C(=O)N[C@@H](CCCCN)C(=O)N[C@@H](CC(=O)O)C(=O)N[C@@H](CC(N)=O)C(=O)N[C@H](C(=O)N[C@@H](C)C(=O)N1CCC[C@H]1C(=O)N[C@@H](CCCNC(=N)N)C(=O)N[C@@H](CO)C(=O)N[C@@H](CCCCN)C(=O)N[C@H](C(=O)N[C@@H](CO)C(=O)N1CCC[C@H]1C(=O)N[C@@H](CCC(N)=O)C(=O)NCC(=O)N1C[C@H](O)C[C@H]1C(N)=O)C(C)C)C(C)C)[C@@H](C)O [compound 167] (H-GCRFGTCTVQRLAHQIYQFTDKDKDNVAPRSKVSPQG[Hyp]-NH2; disulfide 2-7; N-terminus assumed),6.600,56
CC[C@H](C)[C@H](NC(=O)[C@H](CCC(N)=O)NC(=O)[C@H](Cc1c[nH]cn1)NC(=O)[C@H](C)NC(=O)[C@H](CC(C)C)NC(=O)[C@H](CCCNC(=N)N)NC(=O)[C@H](CCC(N)=O)NC(=O)[C@@H](NC(=O)[C@@H](NC(=O)[C@@H]1CSSC[C@H](NC(=O)CN)C(=O)N[C@@H](CCCNC(=N)N)C(=O)N[C@@H]([C@@H](C)O)C(=O)NCC(=O)N[C@@H]([C@@H](C)O)C(=O)N1)[C@@H](C)O)C(C)C)C(=O)N[C@@H](Cc1ccc(O)cc1)C(=O)N[C@@H](CCC(N)=O)C(=O)N[C@@H](Cc1ccccc1)C(=O)N[C@H](C(=O)N[C@@H](CC(=O)O)C(=O)N[C@@H](CCCCN)C(=O)N[C@@H](CC(=O)O)C(=O)N[C@@H](CCCCN)C(=O)N[C@@H](CC(=O)O)C(=O)N[C@@H](CC(N)=O)C(=O)N[C@H](C(=O)N[C@@H](C)C(=O)N1CCC[C@H]1C(=O)N[C@@H](CCCNC(=N)N)C(=O)N[C@H](C(=O)N[C@@H](CC(N)=O)C(=O)N[C@H](C(=O)N[C@@H](CO)C(=O)N1CCC[C@H]1C(=O)N[C@@H](CC(N)=O)C(=O)NCC(=O)N1C[C@H](O)C[C@H]1C(N)=O)[C@@H](C)CC)[C@@H](C)O)C(C)C)[C@@H](C)O [compound 170] (H-GCRTGTCTVQRLAHQIYQFTDKDKDNVAPRTNISPNG[Hyp]-NH2; disulfide 2-7),1.800,64
CC[C@H](C)[C@H](NC(=O)[C@H](CCC(N)=O)NC(=O)[C@H](Cc1c[nH]cn1)NC(=O)[C@H](C)NC(=O)[C@H](CC(C)C)NC(=O)[C@H](CCCNC(=N)N)NC(=O)[C@H](CCC(N)=O)NC(=O)[C@@H](NC(=O)[C@@H](NC(=O)[C@@H]1CSSC[C@H](NC(=O)CN)C(=O)N[C@@H](CCCNC(=N)N)C(=O)N[C@@H]([C@@H](C)O)C(=O)NCC(=O)N[C@@H]([C@@H](C)O)C(=O)N1)[C@@H](C)O)C(C)C)C(=O)N[C@@H](Cc1ccc(O)cc1)C(=O)N[C@@H](CCC(N)=O)C(=O)N[C@@H](Cc1ccccc1)C(=O)N[C@H](C(=O)N[C@@H](CC(=O)O)C(=O)N[C@@H](CCCCN)C(=O)N[C@@H](CC(=O)O)C(=O)N[C@@H](CCCCN)C(=O)N[C@@H](CC(=O)O)C(=O)N[C@@H](CC(N)=O)C(=O)N[C@H](C(=O)N[C@@H](C)C(=O)N1CCC[C@H]1C(=O)N[C@@H](CCCNC(=N)N)C(=O)N[C@H](C(=O)N[C@@H](CC(N)=O)C(=O)N[C@H](C(=O)N[C@@H](CO)C(=O)N1CCC[C@H]1C(=O)N[C@@H](CCC(N)=O)C(=O)NCC(=O)N[C@@H](Cc1ccc(O)cc1)C(N)=O)C(C)C)[C@@H](C)O)C(C)C)[C@@H](C)O [compound 176] (H-GCRTGTCTVQRLAHQIYQFTDKDKDNVAPRTNVSPQGY-NH2; disulfide 2-7; N-terminus assumed),6.800,76
